Experimental data taken from patent US20240002391A1, “4-ALKOXYPYRROLO[2,1-F][1,2,4]TRIAZINES AND PREPARATION AND USES THEREOF” (BioSplice Therapeutics, Inc., priority 2022, published 2024).
pIC50: −log10 of the molar value.

Target: recombinant DYRK1A kinase (Homo sapiens (Human), UniProt Q13627)
Assay: DYRK1A kinase assay (Ser/Thr 18 peptide Z-lyte FRET)
Format: biochemical
Details: DYRK1A kinase activity, Z-lyte Ser/Thr 18 peptide, 15 μM ATP; method text calls the value IC50; read-out: EC50 (the source's name)
Outline: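 Z-lyte FRET: recombinant DYRK1A 0.25 μg/mL, ATP 15 μM, Ser/Thr 18 peptide 4 μM, with compound (11-point 1:3, 10 μM top) 1 h at room temperature, then development reagent 1 h. Coumarin/fluorescein emission ratio converted to % phosphorylation; IC50 by non-linear regression, duplicates.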

Compound	pIC50
COc1nc(N[C@H]2CC[C@](C)(O)CC2)nn2cc(F)c(-c3cnc4nccn4c3)c12 [Compound 996, (1r,4r)-4-((6-Fluoro-5-(imidazo[1,2-a]pyrimidin-6-yl)-4-methoxypyrrolo[2,1-f][1,2,4]triazin-2-yl)amino)-1-methylcyclohexan-1-ol]	8.54
N-(cis-4-((4-Methoxy-5-(quinolin-6-yl)pyrrolo[2,1-f][1,2,4]triazin-2-yl) amino)cyclohexyl)acetamide [Compound 1044]	8.49
COc1nc(N[C@H]2C[C@H](C(C)(C)O)C2)nn2ccc(-c3ccc4nccnc4c3)c12 [Compound 328, 2-(trans-3-((4-Methoxy-5-(quinoxalin-6-yl)pyrrolo[2,1-f][1,2,4]triazin-2-yl)amino)cyclobutyl)propan-2-ol]	8.27
COc1nc(N[C@@H]2CCC[C@@H]2O)nn2ccc(-c3cnc4nccn4c3)c12 [Compound 942, (1S,2R)-2-((5-(Imidazo[1,2-a]pyrimidin-6-yl)-4-methoxypyrrolo[2,1-f][1,2,4]triazin-2-yl)amino)cyclopentan-1-ol]	7.72
COc1nc(NC2CCC(C)(C)CC2)nn2ccc(-c3cnc4nccn4c3)c12 [Compound 947, N-(4,4-Dimethylcyclohexyl)-5-(imidazo[1,2-a]pyrimidin-6-yl)-4-methoxypyrrolo[2,1-f][1,2,4]triazin-2-amine]	8.66
COc1nc(N[C@@H]2CCN(C3COC3)CC2(F)F)nn2ccc(-c3ccc4ncnn4c3)c12 [Compound 578, (R)-5-([1,2,4]Triazolo[1,5-a]pyridin-6-yl)-N-(3,3-difluoro-1-(oxetan-3-yl)piperidin-4-yl)-4-methoxypyrrolo[2,1-f][1,2,4]triazin-2-amine]	8.10
COc1nc(N[C@H]2CC[C@@](C)(O)CC2)nn2ccc(-c3ccc4nnn(C)c4c3)c12 [Compound 224, cis-4-((4-Methoxy-5-(1-methyl-1H-benzo[d][1,2,3]triazol-6-yl)pyrrolo[2,1-f][1,2,4]triazin-2-yl)amino)-1-methylcyclohexan-1-ol]	7.95
CNC(=O)c1cnc2ccc(-c3ccn4nc(N[C@H]5CC[C@@H](OC)CC5)nc(OC)c34)cn12 [Compound 439, 6-(4-Methoxy-2-((cis-4-methoxycyclohexyl)amino)pyrrolo[2,1-f][1,2,4]triazin-5-yl)-N-methylimidazo[1,2-a]pyridine-3-carboxamide]	8.64
COc1nc(N[C@@H]2CN(C)C[C@@H]2F)nn2ccc(-c3ccc4nnn(CC(F)F)c4c3)c12 [Compound 730, 5-(1-(2,2-Difluoroethyl)-1H-benzo[d][1,2,3]triazol-6-yl)-N-((3R,4S)-4-fluoro-1-methylpyrrolidin-3-yl)-4-methoxypyrrolo[2,1-f][1,2,4]triazin-2-amine]	8.34
COc1nc(N[C@H]2C[C@](C)(C(=O)N(C)C)C2)nn2ccc(-c3ccc4nccnc4c3)c12 [Compound 339, trans-3-((4-Methoxy-5-(quinoxalin-6-yl)pyrrolo[2,1-f][1,2,4]triazin-2-yl)amino)-N,N,1-trimethylcyclobutane-1-carboxamide]	8.32
COc1nc(N[C@@H]2CCOC[C@H]2F)nn2ccc(-c3cnc4nccn4c3)c12 [Compound 1149, N-((3S,4R)-3-Fluorotetrahydro-2H-pyran-4-yl)-5-(imidazo[1,2-a]pyrimidin-6-yl)-4-methoxypyrrolo[2,1-f][1,2,4]triazin-2-amine]	8.35
COc1nc(N[C@H]2CCN(C)C[C@H]2F)nn2ccc(-c3ccn4nccc4c3)c12 [Compound 34, N-((3R,4S)-3-Fluoro-1-methylpiperidin-4-yl)-4-methoxy-5-(pyrazolo[1,5-a]pyridin-5-yl)pyrrolo[2,1-f][1,2,4]triazin-2-amine]	8.21
C[C@]1(O)CC[C@H](Nc2nc(OCC(F)F)c3c(-c4ccc5ncnn5c4)ccn3n2)CC1 [Compound 616, (1r,4r)-4-((5-([1,2,4]Triazolo[1,5-a]pyridin-6-yl)-4-(2,2-difluoroethoxy)pyrrolo [2,1-f][1,2,4]triazin-2-yl)amino)-1-methylcyclohexan-1-ol]	8.54
COc1nc(N[C@@H]2CCN(C(C)=O)CC2(F)F)nn2cc(F)c(-c3ccc4ncccc4c3)c12 [Compound 1064, (R)-1-(3,3-Difluoro-4-((6-fluoro-4-methoxy-5-(quinolin-6-yl)pyrrolo[2,1-f][1,2,4]triazin-2-yl)amino)piperidin-1-yl)ethan-1-one]	8.70
COc1nc(NC2CC3(COC3)C2)nn2ccc(-c3ccc4nccn4c3)c12 [Compound 74, 5-(Imidazo[1,2-a]pyridin-6-yl)-4-methoxy-N-(2-oxaspiro[3.3]heptan-6-yl)pyrrolo[2,1-f][1,2,4]triazin-2-amine]	8.28
COc1nc(N[C@@H]2CCN(C(C)=O)CC2(F)F)nn2ccc(-c3ccc4nccnc4c3)c12 [Compound 1096, (R)-1-(3,3-Difluoro-4-((4-methoxy-5-(quinoxalin-6-yl)pyrrolo[2,1-f][1,2,4]triazin-2-yl)amino)piperidin-1-yl)ethan-1-one]	8.52
COCCO[C@H]1CC[C@@H](Nc2nc(OC)c3c(-c4ccc5nccn5c4)ccn3n2)CC1 [Compound 51, 5-(Imidazo[1,2-a]pyridin-6-yl)-4-methoxy-N-(cis-4-(2-methoxyethoxy)cyclohexyl)pyrrolo[2,1-f][1,2,4]triazin-2-amine]	8.17

Stronger by pIC50, values ahead:

pIC50	Compound
8.74	COc1nc(NC2CCC(F)(F)CC2)nn2ccc(-c3cnc4nccn4c3)c12 [Compound 254, N-(4,4-Difluorocyclohexyl)-5-(imidazo[1,2-a]pyrimidin-6-yl)-4-methoxypyrrolo[2,1-f][1,2,4]triazin-2-amine]
8.77	COc1nc(N[C@H]2CCN(C)C[C@H]2F)nn2ccc(-c3ccc4nnn(CC(F)F)c4c3)c12 [Compound 754, 5-(1-(2,2-Difluoroethyl)-1H-benzo[d][1,2,3]triazol-6-yl)-N-((3R,4S)-3-fluoro-1-methylpiperidin-4-yl)-4-methoxypyrrolo[2,1-f][1,2,4]triazin-2-amine]
8.80	COc1nc(N[C@@H]2CCN(C(C)=O)CC2(F)F)nn2ccc(-c3ccc4nnn(CCF)c4c3)c12 [Compound 669, (R)-1-(3,3-Difluoro-4-((5-(1-(2-fluoroethyl)-1H-benzo[d][1,2,3]triazol-6-yl)-4-methoxypyrrolo[2,1-f][1,2,4]triazin-2-yl)amino)piperidin-1-yl)ethan-1-one]
8.82	COc1nc(NC2CCCCC2)nn2ccc(-c3cnc4nccn4c3)c12 [Compound 944, N-Cyclohexyl-5-(imidazo[1,2-a]pyrimidin-6-yl)-4-methoxypyrrolo[2,1-f][1,2,4]triazin-2-amine]
8.85	COc1nc(N[C@H]2C[C@](C)(C(=O)N(C)C)C2)nn2ccc(-c3ccc4nnn(C)c4c3)c12 [Compound 212, trans-3-((4-Methoxy-5-(1-methyl-1H-benzo[d][1,2,3]triazol-6-yl)pyrrolo[2,1-f][1,2,4]triazin-2-yl)amino)-N,N,1-trimethylcyclobutane-1-carboxamide]
8.85	COc1nc(N[C@@H]2CCN(C(C)=O)CC2(F)F)nn2ccc(-c3ccc4nnn(C(C)C)c4c3)c12 [Compound 691, (R)-1-(3,3-Difluoro-4-((5-(1-isopropyl-1H-benzo[d][1,2,3]triazol-6-yl)-4-methoxypyrrolo[2,1-f][1,2,4]triazin-2-yl)amino)piperidin-1-yl)ethan-1-one]
8.85	COc1nc(N[C@H]2CCN(C3COC3)C[C@H]2F)nn2ccc(-c3ccc4ncn(CC(F)F)c4c3)c12 [Compound 1141, 5-(1-(2,2-Difluoroethyl)-1H-benzo[d]imidazol-6-yl)-N-((3R,4S)-3-fluoro-1-(oxetan-3-yl)piperidin-4-yl)-4-methoxypyrrolo[2,1-f][1,2,4]triazin-2-amine]
8.89	COc1nc(N[C@H]2CCN(C3COC3)C[C@H]2F)nn2ccc(-c3ccc4nnn(CC(F)F)c4c3)c12 [Compound 762, 5-(1-(2,2-Difluoroethyl)-1H-benzo[d][1,2,3]triazol-6-yl)-N-((3R,4S)-3-fluoro-1-(oxetan-3-yl)piperidin-4-yl)-4-methoxypyrrolo[2,1-f][1,2,4]triazin-2-amine]
8.92	COc1nc(N[C@H]2C[C@@](C)(NC(C)=O)C2)nn2ccc(-c3ccc4nnn(CC(F)F)c4c3)c12 [Compound 702, N-((1s,3s)-3-((5-(1-(2,2-Difluoroethyl)-1H-benzo[d][1,2,3]triazol-6-yl)-4-methoxypyrrolo[2,1-f][1,2,4]triazin-2-yl)amino)-1-methylcyclobutyl)acetamide]
8.96	COc1nc(N[C@H]2CCN(CC(C)(C)O)C[C@H]2F)nn2ccc(-c3ccc4nnn(CC(F)F)c4c3)c12 [Compound 758, 1-((3R,4S)-4-((5-(1-(2,2-Difluoroethyl)-1H-benzo[d][1,2,3]triazol-6-yl)-4-methoxypyrrolo[2,1-f][1,2,4]triazin-2-yl)amino)-3-fluoropiperidin-1-yl)-2-methylpropan-2-ol]
9.05	COc1nc(N[C@H]2CC[C@](C)(OC)CC2)nn2ccc(-c3cnc4nccn4c3)c12 [Compound 954, 5-(Imidazo[1,2-a]pyrimidin-6-yl)-4-methoxy-N-((1r,4r)-4-methoxy-4-methylcyclohexyl)pyrrolo[2,1-f][1,2,4]triazin-2-amine]
9.10	COc1nc(N[C@@H]2CN(C(C)=O)C[C@@H]2F)nn2ccc(-c3ccc4nnn(CC(F)(F)F)c4c3)c12 [Compound 912, 1-((3S,4R)-3-Fluoro-4-((4-methoxy-5-(1-(2,2,2-trifluoroethyl)-1H-benzo[d][1,2,3]triazol-6-yl)pyrrolo[2,1-f][1,2,4]triazin-2-yl)amino)pyrrolidin-1-yl)ethan-1-one]
9.15	CCC(=O)N1CC[C@H](Nc2nc(OC)c3c(-c4ccc5nnn(CC(F)F)c5c4)ccn3n2)[C@H](F)C1 [Compound 773, 1-((3R,4S)-4-((5-(1-(2,2-Difluoroethyl)-1H-benzo[d][1,2,3]triazol-6-yl)-4-methoxypyrrolo[2,1-f][1,2,4]triazin-2-yl)amino)-3-fluoropiperidin-1-yl)propan-1-one]
